The values that follow come from US20200237703A1, “OLEACEIN FOR USE IN ATHEROSCLEROSIS PREVENTION” (WARSZAWSKI UNIWERSYTET MEDYCZNY, priority 2017, published 2020).

The test system of data set [1] is macrophage cells isolated from human peripheral blood. The data set is described as follows: Cytotoxicity on macrophage cells. The format is cell-based. The conditions noted are these: oleacein 20 μmol/L and 50 μmol/L, 72 hours. As for the experimental part:
(§1) All experiments were conducted with the use of macrophage cells isolated from human peripheral blood. […] Expression of scavenger receptors was determined using flow cytometer. Visualization of lipid deposits in macrophages (foam cells) was carried out with the use of well-known Red Oil O staining method.

In the next data set the test system is macrophage foam cells. Kind of data set: Formation of foam cells / lipid deposits in macrophages, Red Oil O staining. The format is cell-based, human. The conditions noted are these: oleacein 50 μmol/L + oxLDL 50 μg/mL. The protocol: as §1
The images were acquired using fluorescence microscope Nikon TS100F. D—control, the cells without stimulation, E—the cells incubated with oleacein (50 μmol/L), F—the cells stimulated with oxLDL (50 μg/mI)—stimulated control, G—the cells incubated with oleacein (50 μmol/L) and oxLDL (50 μg/mL).

Molecules are shown by their SMILES.

With `C/C=C(/C=O)[C@@H](CC=O)CC(=O)OCCc1ccc(O)c(O)c1` [oleacein], the “cytotoxicity on macrophage cells” value in data set [1] is “no cytotoxicity”. In the data set on macrophage foam cells, the “effect on the formation of foam cells and lipid deposits” value is recorded as “inhibitory effect”.
